Data set [1] can be described thus: RP, Waters ACQUITY UPLC BEH C18, 100 × 2.1 mm, 1.7 µm; A: water + 0.1% formic acid, pH 3; B: 80% acetonitrile + 20% acetone + 0.1% formic acid, pH 3; gradient (min/%B) 0/0 6/100. The conditions noted are these: stereoisomer not certain.
Data set [2] in a line: RP, Waters ACQUITY UPLC HSS T3, 100 × 2.1 mm, 1.8 µm; A: water + 0.1% formic acid, pH 3; B: 30% methanol + 70% acetonitrile + 0.1% formic acid, pH 3; gradient (min/%B) 0.0/5 1.0/8 2.0/15 3.0/40 4.0/70 4.5/100 5.0/100 6.4/100 6.6/5.0 6.8/5.0 7.0/5.0. Conditions: stereoisomer not certain.

Counter-ions that a name gives are not always drawn.

Regarding `CNC(C)(C)C(=O)O` [alfa-(methylamino)isobutyric acid], the LC retention time in data set [1] was determined as 0.712 min; in data set [2], 0.531 min.
The matching figures for `Nc1c(O)cccc1C(=O)CC(N)C(=O)O` (racemic) [3-hydroxy-dl-kynurenine]: 1.03 min and 0.786 min.
`CCCCCCCCCCCCCCCC(=O)OCC(O)COP(=O)([O-])OCC[N+](C)(C)C` (stereo not drawn) [lysoPC(16:0/0:0)]: the LC retention time was found to be 4.4 min in data set [1] and 4.7 min in data set [2].
On the same counts, the results for `O=C(O)C1CCCN1` (stereo not drawn) [Proline] are 0.626 min and 0.506 min.
On the same counts, the results for `Cn1c[n+](C2OC(CO)C(O)C2O)c2nc(N)[nH]c(=O)c21` (stereo not drawn) [7-methylguanosine] are 1.17 min and 0.688 min.
The matching figures for `O=C(O)C(O)Cc1ccc(O)cc1` (stereo not drawn) [(DL)-p-hydroxyphenyllactic acid]: 1.54 min and 2.66 min.
Take `CSCCC(NC(=O)Cc1ccccc1)C(=O)O` (stereo not drawn) [N-phenylacetyl-methionine]: the results for the LC retention time in data set [1] and in data set [2] were 2.58 min and 3.79 min, respectively.
In the case of `COc1cc2c(CCNC(C)=O)c[nH]c2cc1O` [6-hydroxymelatonin], the LC retention time in data set [1] came to 1.81 min; in data set [2], 3.4 min.
On the same counts, the results for `O=C(O)CNC(=O)c1ccccc1` [Hippuric acid] are 1.77 min and 3.1 min.
The matching figures for `CCCCCCCCCCCC(=O)N(C)CC(=O)O` [n-lauroylsarcosine]: 4.27 min and 4.6 min.
In the case of `OCC1OC(OC2C(CO)OC(O)C(O)C2O)C(O)C(O)C1O` (stereo not drawn) [alfa-lactose monohydrate], the LC retention time in data set [1] was 0.6 min; in data set [2], 0.476 min.
As to `CC(CCC(=O)NCC(=O)O)C1CCC2C3C(O)CC4CC(O)CCC4(C)C3CCC12C` (stereo not drawn) [glycochenodeoxycholic acid], the values for the LC retention time in data set [1] and in data set [2] were 3.46 min and 4.23 min, respectively.
On the same counts, the results for `NC(CCCCNC(=O)CO)C(=O)O` (stereo not drawn) [GALA ((2s)-2-amino-6-(2-hydroxy-acetylamino)-hexanoic acid)] are 0.676 min and 0.527 min.
The matching figures for `NC(=O)c1cccnc1` [nicotinamide]: 0.969 min and 0.722 min.
Turning to `CC(C(=O)O)C(=O)O` [Methylmalonic acid], the values for the LC retention time in data set [1] and in data set [2] were 1.27 min and 0.539 min, respectively.
`Nc1ccn(C2OC(CO)C(O)C2O)c(=O)n1` (stereo not drawn) [cytidine]: the LC retention time in data set [1] is 0.749 min; in data set [2] it was 0.533 min.
The matching figures for `O=C(O)CC(O)(CC(=O)O)C(=O)O` [Citric acid]: 0.785 min and 0.659 min.
On the same counts, the results for `CC(CCC(=O)NCCS(=O)(=O)O)C1CCC2C3CCC4CC(O)CCC4(C)C3CC(O)C12C` (stereo not drawn) [taurodeoxycholic acid] are 3.33 min and 4.46 min.
Regarding `Cn1cnc2c1c(=O)[nH]c(=O)n2C` [theobromine], the LC retention time was found to be 1.37 min in data set [1] and 2.14 min in data set [2].
Take `O=C(O)CCCC(=O)O` [Glutaric acid]: the LC retention time came to 1.37 min in data set [1] and 1.32 min in data set [2].
On to `CC(C)(CO)C(O)C(=O)NCCC(=O)NCCSSCCNC(=O)CCNC(=O)C(O)C(C)(C)CO` (stereo not drawn) [d-pantethine], for which the LC retention time in data set [1] was determined as 1.87 min; in data set [2] it was 3.44 min.
The matching figures for `CC(CCC(=O)NCC(=O)O)C1CCC2C3CCC4CC(O)CCC4(C)C3CC(O)C12C` (stereo not drawn) [glycodeoxycholic acid]: 3.46 min and 4.44 min.
The matching figures for `CC(CCC(=O)NCC(=O)O)C1CCC2C3CCC4CC(O)CCC4(C)C3CCC12C` (stereo not drawn) [glycolithocholic acid]: 3.56 min and 4.61 min.
On the same counts, the results for `Cn1c(=O)[nH]c2[nH]c(=O)[nH]c2c1=O` [1-methyluric acid] are 1.28 min and 1.27 min.
Turning to `O=c1[nH]c(=O)c2[nH]c(=O)[nH]c2[nH]1` [Uric acid], the LC retention time in data set [1] turned out to be 0.752 min; in data set [2], 0.618 min.
On the same counts, the results for `O=c1c(O)c(-c2ccc(O)cc2)oc2cc(O)cc(O)c12` [kaempferol] are 2.76 min and 3.88 min.
The matching figures for `O=C1CCCCN1` [delta-valerolactam]: 1.39 min and 1.69 min.
Turning to `CNCC(O)c1ccc(O)c(O)c1` (stereo not drawn) [epinephrine], the LC retention time in data set [2] came to 0.564 min.
Same read-out and setting: as for `NC(=O)NC(NC(N)=O)C(=O)O` [allantoic acid], the figure is 0.491 min.
Regarding `C[N+](C)(C)CC(O)CC(=O)[O-]` (stereo not drawn) [l-carnitine inner salt], in data set [2], the LC retention time is 0.457 min.
Still for that read-out and setting: with `CC(C)C(N)C(=O)O` (stereo not drawn) [valine] the figure was 0.546 min.
The same measure, in the same setting: as for `O=C(O)C(O)c1ccc(O)c(O)c1` (stereo not drawn) [dihydroxymandelic acid], the figure is 0.829 min; as for `NC(CC(=O)O)C(=O)NC(Cc1ccccc1)C(=O)O` (stereo not drawn) [asp-phe], 2.67 min.
On the same count and under the same terms, with `NCCC(=O)NC(Cc1cnc[nH]1)C(=O)O` (stereo not drawn) [carnosine] the figure was 0.437 min; with `O=C(O)c1ccc[nH]1` [pyrrole-2-carboxylic acid], 2.61 min; with `C[N+]1(C)CCCC1C(=O)[O-]` (stereo not drawn) [proline betaine], 0.543 min.
Regarding `CC12CCC3C(CCC4CC(=O)CCC43C)C1CCC2O` (stereo not drawn), the LC retention time in data set [2] stood at 4.47 min.
As to `O=c1cc(-c2ccc(O)c(O)c2)oc2cc(O)cc(O)c12` [luteolin], the LC retention time in data set [2] is 3.75 min.
On the same count and under the same terms, as for `CC12CCC(=O)C=C1CCC1C2CCC2(C)C(O)CCC12` (stereo not drawn) [testosterone], the figure is 4.32 min; as for `CC12C=Cc3occc3C1CCC13CC(CCC12)C(O)(CO)C3` (stereo not drawn) [kahweol], 3.81 min; as for `CCC=CCC=CCC=CCC=CCC=CCC=CCCC(=O)OC(COC(=O)CCCCCCCCCCCCCCCCC)COP(=O)([O-])OCC[N+](C)(C)C` (stereo not drawn) [pc(18:0/22:6)], 5.51 min.
On to `Cc1ccccc1C(=O)NCC(=O)O` [2-methylhippuric acid], for which, in data set [2], the LC retention time was 3.41 min.
On the same count and under the same terms, as for `O=C(O)CNC(=O)C=Cc1c[nH]c2ccccc12` [indole-3-acryloylglycine], the figure is 3.56 min; as for `CC(=O)Nc1c(N)[nH]c(=O)n(C)c1=O` [aamu], 0.666 min.
As to `CS(=O)CCCN=C=S` (stereo not drawn) [iberin], in data set [2], the LC retention time was determined as 3.24 min.
The same measure, in the same setting: with `CC(CCC(=O)NCC(=O)O)C1CCC2C3C(O)CC4CC(OC5OC(C(=O)O)C(O)C(O)C5O)CCC4(C)C3CCC12C` (stereo not drawn) [glycochenodeoxycholic acid 3-glucuronide] the figure was 4.34 min.
Same read-out and setting: with `Cn1c(=O)[nH]c(=O)c2c1[nH]c(=O)n2C` [3,7-dimethyluric acid] the figure was 1.55 min; with `O=C(O)C1OC(Oc2ccc(O)cc2)C(O)C(O)C1O` (stereo not drawn) [hydroquinone-glucuronide], 0.91 min; with `CC(C)C(O)C(=O)O` (stereo not drawn) [2-hydroxyisovaleric acid], 2.54 min.
For `CC(C)C(=O)C(=O)O` [alpha-ketoisovaleric acid], in data set [2], the LC retention time came to 1.92 min.
On the same count and under the same terms, as for `O=C(O)Cc1c[nH]c2ccccc12` [3-indoleacetic acid], the figure is 3.63 min.
For `O=C(OC1OC(C(=O)O)C(O)C(O)C1O)c1c[nH]c2ccccc12` (stereo not drawn) [indole-3-carboxylic acid glucuronide], in data set [2], the LC retention time was found to be 3.42 min.
Consider `OCC(O)c1ccc(O)c(O)c1` (stereo not drawn) [3,4-dihydroxyphenylglycol], for which, in data set [2], the LC retention time was found to be 0.858 min.
Same read-out and setting: as for `O=C(Cc1c[nH]c2ccccc12)OC1OC(C(=O)O)C(O)C(O)C1O` (stereo not drawn) [indole-3-acetic acid-glucuronide], the figure is 3.46 min.
Same read-out and setting: with `O=C(O)Cc1c[nH]c2ccc(O)cc12` [5-hydroxyindole-acetic acid] the figure was 2.92 min; with `O=C(O)/C=C/c1cccc(O)c1` [trans-3-hydroxycinnamic acid], 3.53 min; with `O=C(O)C1CCCCN1` (stereo not drawn) [pipecolinic acid], 0.62 min.
Same read-out and setting: with `C=CCS(=O)CC(N)C(=O)O` (stereo not drawn) [aliin] the figure was 0.638 min; with `Cn1c(=O)[nH]c2[nH]c(=O)[nH]c(=O)c21` [7-methyluric acid], 1.08 min; with `CCC(C)(O)C(=O)O` (stereo not drawn) [2-hydroxy-2-methylbutyric acid], 2.23 min.
With `C[N+](C)(C)[O-]` [TMAO], the LC retention time in data set [2] amounted to 0.468 min.
On the same count and under the same terms, as for `CC(C)(N)C(=O)O` [2-aminoisobutyric acid], the figure is 0.524 min; as for `OCC(O)C(O)C(O)C(O)CO` (stereo not drawn) [d(-)-mannitol], 0.483 min.
Same read-out and setting: as for `C[NH+]1CC(O)CC1C(=O)[O-]` (stereo not drawn) [n-methyl-4-hydroxyproline], the figure is 0.498 min.
In the case of `CC(C)CC(=O)NCC(=O)O` [isovalerylglycine], the LC retention time in data set [2] worked out at 2.74 min.
On the same count and under the same terms, with `O=C(O)C1OC(Oc2ccccc2O)C(O)C(O)C1O` (stereo not drawn) [Pyrocatechol glucuronide] the figure was 2.81 min; with `c1coc(CNc2ncnc3nc[nH]c23)c1` [kinetin], 3.03 min; with `Cn1cncc1CC(NC(=O)CCN)C(=O)O` (stereo not drawn) [anserine], 0.441 min.
On to `O=C(O)CNC(=O)Cc1ccccc1` [phenylacetylamino-acetic acid], for which the LC retention time in data set [2] is 3.38 min.
Same read-out and setting: with `Cn1cnc2[nH]c(=O)[nH]c(=O)c21` [7-methylxanthine] the figure was 1.25 min; with `O=C1OC(C(O)CO)C(O)=C1O` (stereo not drawn) [Ascorbic acid], 0.561 min.

(Values after the RepoRT retention time repository (doi:10.1016/j.aca.2011.12.065).)
